The source of these data is patent US10774046B2, “Inhibitors for the treatment of cancer and related methods” (UNIVERSITY OF LOUISVILLE RESEARCH FOUNDATION, INC., priority 2017, dated 2020).

Series [1] can be described thus: oral and intravenous pharmacokinetic properties. In kind it is in vivo. The conditions noted are these: CD-1 mice (N=3).
The subject of series [2] is panel of 97 protein kinases. The experiment in a line: KINOMEscan active-site dependent competition binding assay. Particulars: 10 μM; data not shown. The protocol:
The fructose-6-phosphate kinase activity of human recombinant PFKFB4 in the presence of DMSO±indicated 5MPN concentrations was assayed as previously described. The activity of 5MPN against 97 kinases was examined using a commercially available active-site dependent competition binding assay core service (KINOMEscanEDGE) that quantifies the capacity of test agents to compete with an immobilized, active-site directed ligand using a DNA-tagged kinase and immobilized ligand and compound. For example, enzyme inhibition was studied using an ADP-Glo assay. The effect of MPN-2 on the activity of recombinant human PFKFB4 enzyme was examined in an ADP-Glo assay (Promega), which measures ADP formed from a kinase reaction. ADP is converted into ATP, which is converted into light by a luciferase. PFKFB4 protein was exposed to MPN-2 at indicated concentrations in the presence of ATP and fructose-6-phosphate and following manufacturer's instructions, ADP-Glo and kinase detections reagents were added. The data are shown as the decrease in luminescence caused by MPN-2 relative to DMSO.

In series [3] the test system is normal human bronchial epithelial (NHBE) cells. In words: cell growth of normal cells, live cell count. In kind it is cell-based. Particulars: live cells at 48 hours. An excerpt: H460, H1299, H441, H522 and A549 non-small cell lung cancer (NSCLC), MDA-MB-231 (breast), LNCaP (prostatic) and HCT116 (colon) adenocarcinoma and Lewis lung carcinoma (LLC) cell lines were obtained from ATCC and used within 6 months of acquisition. PFKFB4^−/− ear pinna fibroblasts isolated from TamCre/loxP/PFKFB4^−/− mice were immortalized as described previously (Chesney J et al. Fructose-2,6-bisphosphate synthesis by 6-phosphofructo-2-kinase/fructose-2,6-bisphosphatase 4 (PFKFB4) is required for the glycolytic response to hypoxia and tumor growth. Oncotarget 2014 Aug. 30; 5(16):6670-86). Normal bronchial epithelial cells (NHBE) were obtained from Lonza and NHBE cells expressing telomerase, SV40 large T antigen and activated Ras (hT/LT/Ras) were a gift from Dr. B. J. Rollins, Dana Farber Cancer Institute. All cell lines were tested and found negative for mycoplasma (PCR Mycoplasma Detection Kit, ABM). Cell lines were grown in DMEM (A549, LNCaP, MDA-MB-231, LLC and PFKFB4^−/−), RPMI 1640 (H460, H1299, H441, H522) and McCoy's 5A media (HCT116) (all from Invitrogen) containing 10% fetal calf serum (Hyclone). […]
(§1) Cells were incubated in 20% trypan blue (Sigma) for 5 minutes. Cells excluding trypan blue were counted using a standard hemocytometer (Hausser Scientific) to determine total numbers of viable cells. Data are expressed as mean±SD of three experiments.

For series [4], the system named is H441. The experiment in a line: proliferation, viable cell count. It is filed as cell-based, human. Particulars: H441, over 48 hours.
Description: (§2) H460, H1299, H441, H522 and A549 non-small cell lung cancer (NSCLC), MDA-MB-231 (breast), LNCaP (prostatic) and HCT116 (colon) adenocarcinoma and Lewis lung carcinoma (LLC) cell lines were obtained from ATCC and used within 6 months of acquisition. PFKFB4^−/− ear pinna fibroblasts isolated from TamCre/loxP/PFKFB4^−/− mice were immortalized as described previously (Chesney J et al. Fructose-2,6-bisphosphate synthesis by 6-phosphofructo-2-kinase/fructose-2,6-bisphosphatase 4 (PFKFB4) is required for the glycolytic response to hypoxia and tumor growth. Oncotarget 2014 Aug. 30; 5(16):6670-86). Normal bronchial epithelial cells (NHBE) were obtained from Lonza and NHBE cells expressing telomerase, SV40 large T antigen and activated Ras (hT/LT/Ras) were a gift from Dr. B. J. Rollins, Dana Farber Cancer Institute. All cell lines were tested and found negative for mycoplasma (PCR Mycoplasma Detection Kit, ABM). Cell lines were grown in DMEM (A549, LNCaP, MDA-MB-231, LLC and PFKFB4^−/−), RPMI 1640 (H460, H1299, H441, H522) and McCoy's 5A media (HCT116) (all from Invitrogen) containing 10% fetal calf serum (Hyclone). NHBE and hT/LT/Ras cells were grown in BEGM containing SingleQuots (Lonza). All lines were cultured at 37° C. in 5% CO2. In certain experiments, 4-hydroxytamoxifen (4HT, Sigma-Aldrich) was added to PFKFB4^−/− fibroblasts at indicated concentrations.
as §1

In series [5] the test system is HCT116. In words: proliferation, viable cell count. It is filed as cell-based, human. The conditions noted are these: HCT116, over 48 hours.
Description: as §2, §1

The test system of series [6] is MDA-MB-231. In words: proliferation, viable cell count. In kind it is cell-based, human. Particulars: MDA-MB-231, over 48 hours.
Description: as §2, §1

Series [7] deals with H1299. In words: proliferation, viable cell count. Particulars: H1299, over 48 hours. In kind it is cell-based, human.
Description: as §2, §1

Series [8] deals with H522. The experiment in a line: proliferation, viable cell count. In kind it is cell-based, human. Particulars: H522, over 48 hours.
Description: as §2, §1

Series [9] relates to LNCaP. In words: proliferation, viable cell count. It is filed as cell-based, human. Particulars: over 48 hours.
Description: as §2, §1

The subject of series [10] is A549. In words: proliferation, viable cell count. It is filed as cell-based, human. Particulars: A549, over 48 hours.
Description: as §2, §1

Series [11] can be described thus: pharmacokinetic profile after IV and oral administration. Particulars: C57BL/6 mice. In kind it is in vivo. On the procedure: The pharmacokinetic profile was determined in female C57BL/6 mice following IV and oral administration of 5MPN. Using only female mice lowered the animal numbers required for meaningful results without issues of potential gender differences in exposure. Eight time points (n=3/time point) were used to determine PK parameters calculated using WinNonLin v5.0. Plasma samples were extracted using acetonitrile and analyzed by LC/MS-MS using a PhenomexSynergi Polar-RP 4 micron 50×2.0 mm column eluted with a biphasic mobile phase (0.5% formic acid in acetonitrile and water).

For series [12], the system named is H460 cells. In words: proliferation, viable cell count by trypan blue exclusion. It is filed as cell-based, human. The protocol: as §1
H460 non-small cell lung cancer cells were plated in 24 well plates and exposed to increasing concentrations of the indicated inhibitors of Formula IV (FBR1-02 corresponds to
DMSO was used as vehicle. After 24, 48 and 72 hours of exposure, cells were detached and viable cells were counted by Trypan blue exclusion (representative counts at 48 hours shown).
Method: H460 cells were plated in 24 well plates and exposed to increasing concentrations of FB4-31 to FB4-36 and 5MPN. DMSO was used as a vehicle. After 24, 48 and 72 hours of exposure, cells were detached, and viable cells were counted by Trypan blue exclusion (representative counts at 72 hours shown).

The test system of series [13] is cancer cells. The experiment in a line: anchorage independent growth as colonies in soft agar. In kind it is cell-based. Particulars: increasing concentrations. The protocol: Method: Cancer cells were plated in soft agar and the effects of increasing concentrations of Formula (VIII) on anchorage independent growth was examined. Briefly, a feeder layer of 0.6% agarose (Agar Noble, Becton Dickinson) in RPMI with 10% fetal bovine serum was plated in 6 cm plates containing vehicle (DMSO) or increasing concentrations of Formula (VIII). 1×10^4 cells were re-suspended in 0.3% agarose in RPMI/10% serum containing DMSO or increasing concentrations of Formula (VIII) and plated on top of the feeder layer. Cells were allowed to grow at 37° C. in 5% CO2 and agarose-containing media with DMSO+/−Formula (VIII) was replenished every 5 days until colonies became visible. Colonies were stained with MTT [3-(4,5-dimethylthiazol-2-yl)-2,5-diphenyl tetrazolium bromide] and counted in four random 1 cm^2 areas per plate under 40× magnification and enumerated.

On to “5-[(8-methoxy-2-methylquinolin-1-ium-4-yl)amino]pentyl nitrate [MPN-2]”, for which, in [1], the intravenous bioavailability result was “exhibits intravenous bioavailability” and the oral bioavailability result is listed as “has oral bioavailability”.

With `COc1cccc2c(NCCCCCO[N+](=O)[O-])ccnc12` [5MPN, 5-[(8-methoxyquinolin-4-yl)amino]pentyl nitrate], the “inhibition of a panel of 97 protein kinases” value in series [2] was “not inhibited”. Further, the “cell growth of normal cells” value in series [3] was “virtually unaffected”. In addition, the growth result in [4], in [5], in series [6], in series [7], in series [8] and in [9] was “dose-dependent reduction in growth” each time. The growth entry is given as “dose-dependent reduction in growth” in series [10] and “dose-dependent reduction in growth” in series [12] (H460, over 48 hours). For the same molecule, in series [11], the oral bioavailability result is “has oral bioavailability”. The “concentrations reached by intravenous and oral administration” value in series [11] (IV and oral, administered daily) is “adequate to achieve potentially therapeutic concentrations”. In addition, the cell proliferation result in series [12] (H460, 24-72 hours) was “reduction in cell proliferation”. Also, in series [12] (H460 transfected with PFKFB4, 10 μM 5MPN, 24 hours), the “effect of overexpression of PFKFB4 on anti-proliferative effect” value is “protected”.

On to `COc1cccc2c(NCCCCCNC(=O)C(F)(F)F)ccnc12` [Formula (VIII), 2,2,2-trifluoro-N-(5-((8-methoxyquinolin-4-yl)amino)pentyl)acetamide], for which, in series [13], the “anchorage independent growth (soft agar colonies)” value was “inhibited the growth of cancer cells as soft agar colonies”.
